In patent US12037372B2, “Bioactive peptides derived from snakes” (Universiteit Leiden, priority 2018, dated 2024):
“Also recorded” adds a separate entry of the source.

How the values were obtained:
[1] = system: MDR E. cloacae (LUH 15114); assay: Bactericidal activity of peptides (in vitro killing assay); type: cell-based, Enterobacter cloacae; conditions: PBS with 50% plasma, 2 hours
Method: (§1) Enterococcus faecium (LUH 15122), Staphylococcus aureus (LUH 14616), Klebsiella pneumoniae (LUH 15104), Acinetobacter baumannii (RUH 875), Pseudomonas aeruginosa (LUH 15103), Enterobacter cloacae (LUH 15114) and Escherichia coli (LUH 15117) were used. Prior to experimentation the bacteria were taken from a glycerol stock stored at −80° C. and cultured overnight on sheep blood agar plates at 37° C. On the day of experimentation the bacteria were cultured in tryptic soy broth (TSB; Oxoid) for 2.5 hours at 37° C. and 200 rpm to a mid-logarithmic phase. The bacterial suspension was washed in phosphate buffered saline (PBS; pH 7.4), centrifuged for 10 minutes at 3000 rpm, and resuspended in PBS to the desired concentration, as determined by measuring the absorbance at 600 nm.
(§2) As a control the bacteria were also incubated in PBS with either 50% plasma or 50% urine without peptide. The plate was incubated for 2 hours at 37° C. and 200 rpm. After incubation the number of viable bacteria was determined microbiologically by plating the samples and a 10-times dilution series in PBS on diagnostic sensitivity test agar plates (DST; Sigma). The DST plates were incubated overnight at 37° C. Results were expressed as lethal concentration 99.9, or LC99.9, which represents the lowest concentration of peptide that killed 99.9% of the bacteria within 2 hours of incubation.

E. coli = assay: Resistance development assay; type: cell-based, Escherichia coli; conditions: 20 passages
Method: (§3) A bacterial culture was prepared and washed as described before. The bacterial culture was diluted to a concentration of 5×10^6 CFU/ml in modified RPMI 1640 comprising 20 mM HEPES, L-glutamine and without sodium bicarbonate (RPMImod; Sigma-Aldrich). In a polypropylene 96-well plate, a two-fold peptide dilution series was made in RPMImod with concentrations ranging from 0.94 μM to 240 μM. […] A negative control of RPMImod without peptide or an antibiotic was included for both dilution series. A contamination control was included containing only RPMImod. To all the wells, except the contamination control wells, 5 μl of the bacterial suspension were added. The plate was sealed and incubated overnight at 37° C. and 200 rpm. After incubation the MIC was determined as the well with the lowest peptide concentration and no bacterial growth. The well with half the MIC was diluted 2.5-fold with RPMImod and transferred to an Eppendorf tube. […] The results were expressed as the fold increase of the MIC compared to the MIC at the first passage.

[2] = system: MDR K. pneumoniae (LUH 15104); assay: Bactericidal activity of peptides (in vitro killing assay); type: cell-based, Klebsiella pneumoniae; conditions: PBS with 50% plasma, 2 hours
Method: as §1, §2

S. aureus LUH 14616 = assay: Resistance development assay; type: cell-based, Staphylococcus aureus; conditions: 20 passages
Method: as §3

E. faecium (LUH 15122) = assay: Bactericidal activity of peptides (in vitro killing assay); type: cell-based, Enterococcus faecium; conditions: PBS with 50% plasma, 2 hours
Method: as §1, §2

[3] = system: MDR S. aureus (LUH 14616), MRSA; assay: as above; type: cell-based, Staphylococcus aureus; conditions: 50% v/v human plasma
Method: as §1, §2

[4] = system: persisters originating from matured, antibiotic-exposed, MRSA biofilms; assay: Activity against persisters; type: cell-based, Staphylococcus aureus
[5] = system: lipopolysaccharide from E. coli J5 (LPS); assay: LPS neutralization by peptides (whole blood, IL-12p40 ELISA); type: cell-based, human; conditions: compared to the LPS control
Method: Heparinized blood collected from healthy human volunteers was diluted five times in RPMI 1640. Next, 195 μl of diluted blood were pipetted in to the wells of a 96-well cell culture plate. In another 96-well polypropylene V-bottom plate, 15 μl of peptide solution with final concentrations of 1 nM to 1000 nM were mixed with 15 μl of 500 ng/ml lipopolysaccharide from E. coli J5 (LPS; Sigma) for 30 minutes at 37° C. and 200 rpm. After incubation the mixtures were diluted five times with 120 μl of RPMI. From the diluted mixtures 5 μl were transferred to the wells of the plate containing the 195 μl of blood. The plate was incubated for 20 hours at 37° C. and 5% CO2. The plate was centrifuged for 5 minutes at 1200 rpm. The supernatants were stored as aliquots at −20° C. until analysis of the cytokine level by ELISA. The IL-12p40 sandwich ELISA from Invitrogen was used. ELISAs were performed according to manufacturer's instructions. Results were expressed as the concentration IL-12p40 in pg/ml.

A. Baumannii [6] = assay: Killing of A. baumannii in BM2 medium (control); type: cell-based, Acinetobacter baumannii; conditions: 0.8 μM peptide
Method: As a control, the ability of these peptides to kill A. baumannii in BM2 medium was assessed.

[7] = system: multidrug resistant strain Acinetobacter baumannii RUH875; assay: Bactericidal activity of peptides (in vitro killing assay); type: cell-based; conditions: for LC99.9, bactericidal activity: MDR A. baumannii, PBS with 50% plasma
Method: as §1, §2

A. Baumannii [8] = assay: Resistance development assay; type: cell-based, Acinetobacter baumannii; conditions: 20 passages
Method: as §3

[9] = system: 24-hour biofilm of A. baumannii RUH 875; assay: Biofilm breakdown assay; type: cell-based, Acinetobacter baumannii; conditions: 2-hour treatment
Method: To a polypropylene 96-well flat-bottom plate (Greiner) 50 μl of a bacterial suspension at a concentration of 1×10^7 CFU/ml in BM2 medium (Overhage et al., 2008) were added. A control comprising BM2 medium alone was included. The plate was sealed off with a seal (Costar) and incubated in a humidified environment for 24 hours at 37° C. Thereafter the wells were washed 2 times with PBS. […] The plate was sealed off and incubated for 2 hours at 37° C. and 200 rpm. For analysis the plate was sonicated (Ultrasoonbad BRANSONIC® m1800H-E; Boom b.v.) for 5 minutes to detach the biofilm bacteria. The number of viable bacteria in the sonicates was determined microbiologically by plating the samples and a 10-times dilution series on DST agar plates and incubating these overnight at 37° C. Results were expressed as the LC99.9.

[10] = system: colistin-resistant E. coli (LUH 15117); assay: Bactericidal activity of peptides (in vitro killing assay); type: cell-based, Escherichia coli; conditions: PBS with 50% plasma, 2 hours
Method: as §1, §2

[11] = system: MRSA (S. aureus LUH 14616) on ex vivo human skin; assay: Ex vivo skin model; parameters: species or system Staphylococcus aureus; conditions: 10 μl peptide solution; 1 hour treatment
Description: The donor skin was transported to the LUMC in RPMI 1640 medium (Gibco) supplemented with penicillin/streptomycin (Gibco). Skin samples were washed in PBS and left overnight in RPMI 1640 medium without antibiotics. On the day of the experiment the skin was again washed in PBS, then spread out and punches with a diameter of 8 mm diameter were made with a biopsy punch (Stiefel). The skin samples were dried with a cotton swab. A liquid dam was made with LC Block-Out Resin (Ultradent) on the edge of the skin samples to prevent liquids from dripping off. The liquid dam was solidified by 4 seconds exposure of UV light (Super 1200 led; ECO). The skin samples were placed on grids in a 12-well plate (Costar) filled underneath with medium comprising Ham F12, DMEM and FCS (Gibco). An S. aureus LUH 14616 bacterial suspension was cultured and washed as described before. The skin punches were inoculated with 5 μl of the bacterial suspension (1×10^8 CFU/ml) for one hour at 37° C. and 5% CO2. […] The infected skin was treated for 1 hour at 37° C. and 5% CO2 with 10 μl of the peptide solutions, including a control with 10 μl of PBS alone. Polypropylene tubes were filed with glass beads (1.7 mm diameter) and 1 ml of PBS. The liquid dam was removed from the skin after treatment. […] Results were expressed as the number of viable bacteria (CFU/ml) after treatment.

melanoma = conditions: Wang et al.; cited from earlier work
[12] = system: MDR P. aeruginosa (LUH 15103); assay: Bactericidal activity of peptides (in vitro killing assay); type: cell-based, Pseudomonas aeruginosa; conditions: 2-hour treatment, 50% v/v human plasma, median (range)
Method: as §1, §2

[13] = system: melanoma cells and other cancer cells; conditions: Wang et al.; cited from earlier work
[14] = system: drug-sensitive strain Escherichia coli LUH15108; assay: Bactericidal activity of peptides (in vitro killing assay), alanine scan; type: cell-based; conditions: lowest concentration killing 99.9% of an inoculum of about one million bacteria, 50% (v/v) human plasma, within 2 hours
Method: The amino acids of the SP27 peptide were substituted at various positions with Alanine. The substituted peptides were tested on A. baumannii and E. coli bacterial strains for having antimicrobial activity. Furthermore, the substituted peptides were tested for their hemolytic activity as an indicator for their toxicity.

P. aeruginosa = conditions: Cai et al., 2018; cited from earlier work
MRSA = conditions: Cai et al., 2018; cited from earlier work

Row | Sequence | LC99.9, bactericidal activity [1] | resistance development: fold increase of the MIC (E. coli) | LC99.9, bactericidal activity [2] | resistance development: fold increase of the MIC (S. aureus LUH 14616) | LC99.9, bactericidal activity (E. faecium (LUH 15122)) | reduction of viable bacteria (A. Baumannii [6]) | LC99.9, bactericidal activity ([7]; 2 hours) | resistance development: fold increase of the MIC (A. Baumannii [8]) | peptide concentration with complete elimination of the biofilms [9] | LC99.9, bactericidal activity [10] | peptide concentration killing 99.9% of the MRSA on ex vivo human skin [11] | also measured
1 | KRFKKFFKKLKNNVKKRVKKFFRKPRVIGVTIPF [SP4] | submicromolar concentrations | remained constant for all 20 passages | submicromolar concentrations | remained constant for all 20 passages; also recorded: limited resistance | low micromolar concentrations | 2 log | submicromolar concentrations | remained constant for all 20 passages | 51.2 µM | submicromolar concentrations | 102.4 µM | LC99.9 ([3]; Table 2, MDR S. aureus, concentration inducing 3 log reduction of viable bacteria): 3.2 µM; activity against persisters [4]: highly effective; LPS neutralization (IL-12p40 production) ([5]; 100 nM peptide): 74%; LPS neutralization (IL-12p40 production) ([5]; 1000 nM peptide): 96%
2 | KRFKKFFRKLKKSVKKRAKEFFKKPRVIGVSIPF [SP5] | – | – | – | – | – | – | – | – | – | – | – | LC99.9 (μM) MRSA in 50% plasma ([3]; MDR S. aureus LUH 14616, 2-hour treatment, lowest concentration killing ≥99.9%, median (range)): 25.6 µM; tumor load in melanoma-bearing mice (melanoma): reduces the tumor load; LC99.9 (μM) MDR P. aeruginosa in 50% plasma [12]: 0.4 µM; effect on melanoma cells and other cancer cells in vitro [13]: inhibits
3 | KRFKKFFRKVKKGVHRYFKKNKFYIAATIPYYG [SP27] | submicromolar concentrations | remained constant for all 20 passages | submicromolar concentrations | remained constant for all 20 passages; also recorded: limited resistance | low micromolar concentrations | 2 log | submicromolar concentrations | remained constant for all 20 passages | 51.2 µM | submicromolar concentrations | 204.8 µM | LC99.9 (μM) A. baumannii ([7]; Table 5, 50% (v/v) human plasma, 2 hours): 0.8 µM; LC99.9 (μM) A. baumannii ([7]; Table 6, 50% (v/v) human plasma, 2 hours): 0.8 µM; LC99.9 (μM) A. baumannii ([7]; lowest concentration killing 99.9% of an inoculum of about one million bacteria in 50% (v/v) human plasma within 2 hours, A. baumannii RUH875): 0.8 µM; LC99.9 (μM) A. baumannii ([7]; lowest concentration killing 99.9% of an inoculum of about one million bacteria, 50% (v/v) human plasma, within 2 hours, A. baumannii RUH875): 0.8 µM; LC99.9 (μM) A. baumannii ([7]; lowest concentration of the peptide that kills 99.9% of an inoculum of about one million bacteria in the presence of 50% (v/v) human plasma within 2 hours, Acinetobacter baumannii RUH875): 0.8 µM; LC99.9 (μM) E. coli [14]: 1.6 µM
4 | KRFQNFFRELEKKFREFFRVYRITIGATIRF [SP16] | – | – | – | – | – | – | – | – | – | – | – | bactericidal effect against P. aeruginosa (P. aeruginosa): no bactericidal effect; bactericidal effect against MRSA (MRSA): no bactericidal effect
